Measured values published in PubChem BioAssay AID1963429 (Molecular Pharmacology Branch, DTP, NCI, 2024).
Each block holds one compound with its values, some of them ahead of it.

System: 126254-015-R-J1-PDC complex spheroid growth, % test/control
Test: Anticancer human tumor 126254-015-R-J1-PDC patient-derived soft tissue sarcoma cell line growth inhibition [Asc]
Conditions: for IC50: curve of first compound; for viability, T/C: stronger effect = lower value
Procedure, shortened: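 Stromal components (HUVEC and hMSC) are co-assembled with the cancer cells into multicellular spheroids. Drugs are then added singly or paired, at concentrations falling by half-log increments from a clinically achievable maximum, capped at 10 microM without known Cmax.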

[1] = second compound 0.1 µM, first compound 0.000949 µM
[2] = second compound 0.1 µM, first compound 0.003 µM
[3] = second compound 0.1 µM, first compound 0.00949 µM
[4] = second compound 0.1 µM, first compound 0.03 µM
[5] = second compound 0.1 µM, first compound 0.0949 µM
[6] = second compound 0.1 µM, first compound 0.3 µM
[7] = second compound 0.316 µM, first compound 0.000949 µM
[8] = second compound 0.316 µM, first compound 0.003 µM
[9] = second compound 0.316 µM, first compound 0.00949 µM
[10] = second compound 0.316 µM, first compound 0.03 µM
[11] = second compound 0.316 µM, first compound 0.0949 µM
[12] = second compound 0.316 µM, first compound 0.3 µM
[13] = second compound 1 µM, first compound 0.000949 µM
[14] = second compound 1 µM, first compound 0.003 µM
[15] = second compound 1 µM, first compound 0.00949 µM
[16] = second compound 1 µM, first compound 0.03 µM
[17] = second compound 1 µM, first compound 0.0949 µM
[18] = second compound 1 µM, first compound 0.3 µM
[19] = second compound 0.01 µM, first compound 0.0316 µM
[20] = second compound 0.01 µM, first compound 0.1 µM
[21] = second compound 0.0316 µM, first compound 0.0316 µM
[22] = second compound 0.0316 µM, first compound 0.1 µM
[23] = second compound 0.1 µM, first compound 0.0316 µM
[24] = second compound 0.1 µM, first compound 0.1 µM
[25] = second compound 0.316 µM, first compound 0.0316 µM
[26] = second compound 0.316 µM, first compound 0.1 µM
[27] = second compound 1 µM, first compound 0.0316 µM
[28] = second compound 1 µM, first compound 0.1 µM
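Further: spheroids exposed to compound for seven days.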
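Wherever viability, T/C is given: 100% = DMSO vehicle control wells.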

- IC50 (second compound 0.01 µM): 61 nM
- IC50 (second compound 0.0316 µM): 24.4 nM
- IC50 (second compound 0.1 µM): 24.3 nM
- IC50 (second compound 0.316 µM): 16.8 nM
- IC50 (second compound 1 µM): 10.5 nM
Structure (SMILES): NC(=O)C(=Cn1cnc(-c2cc(C(F)(F)F)cc(C(F)(F)F)c2)n1)c1cncnc1 + CNC(C)C(=O)NC1CN(S(=O)(=O)c2cccc(S(=O)(=O)N3CCC4CCC(C(=O)NC(c5ccccc5)c5ccccc5)N4C(=O)C(NC(=O)C(C)NC)C3)c2)CCC2CCC(C(=O)NC(c3ccccc3)c3ccccc3)N2C1=O
- viability, T/C (second compound 0.01 µM, first compound 0.000949 µM): 85.8%
- viability, T/C (second compound 0.01 µM, first compound 0.003 µM): 87.5%
- viability, T/C (second compound 0.01 µM, first compound 0.00949 µM): 73%
- viability, T/C (second compound 0.01 µM, first compound 0.03 µM): 64.7%
- viability, T/C (second compound 0.01 µM, first compound 0.0949 µM): 41.6%
- viability, T/C (second compound 0.01 µM, first compound 0.3 µM): 9.66%
- viability, T/C (second compound 0.0316 µM, first compound 0.000949 µM): 80.4%
- viability, T/C (second compound 0.0316 µM, first compound 0.003 µM): 77.7%
- viability, T/C (second compound 0.0316 µM, first compound 0.00949 µM): 62.7%
- viability, T/C (second compound 0.0316 µM, first compound 0.03 µM): 47.7%
- viability, T/C (second compound 0.0316 µM, first compound 0.0949 µM): 25.9%
- viability, T/C (second compound 0.0316 µM, first compound 0.3 µM): 9%
- viability, T/C [1]: 58.2%
- viability, T/C [2]: 62.7%
- viability, T/C [3]: 55.9%
- viability, T/C [4]: 48.9%
- viability, T/C [5]: 23%
- viability, T/C [6]: 5.96%
- viability, T/C [7]: 60%
- viability, T/C [8]: 60.8%
- viability, T/C [9]: 54.7%
- viability, T/C [10]: 44%
- viability, T/C [11]: 15.1%
- viability, T/C [12]: 3.45%
- viability, T/C [13]: 51.9%
- viability, T/C [14]: 57.5%
- viability, T/C [15]: 53.4%
- viability, T/C [16]: 35.8%
- viability, T/C [17]: 18.8%
- viability, T/C [18]: 5.88%

- IC50 (second compound 0.1 µM): 30.5 nM
- IC50 (second compound 0.316 µM): 37.3 nM
- IC50 (second compound 1 µM): 31.5 nM
- IC50 (second compound 3.16 µM): 29.6 nM
- IC50 (second compound 10 µM): 26.1 nM
Structure (SMILES): NC(=O)C(=Cn1cnc(-c2cc(C(F)(F)F)cc(C(F)(F)F)c2)n1)c1cncnc1 + Cc1c(S(C)(=O)=O)c(-c2cc(F)cc(N3CCN(c4ccc(NS(=O)(=O)c5ccc(NC(CCN6CCC(C(=O)OCCCP(=O)(O)O)CC6)CSc6ccccc6)c(S(=O)(=O)C(F)(F)F)c5)cc4)CC3)c2)c(-c2ccc(Cl)cc2)n1C(C)C
- viability, T/C [1]: 98.5%
- viability, T/C [2]: 93.8%
- viability, T/C [3]: 74.5%
- viability, T/C [4]: 53.2%
- viability, T/C [5]: 22%
- viability, T/C [6]: 11%
- viability, T/C [7]: 78.1%
- viability, T/C [8]: 82.4%
- viability, T/C [9]: 70%
- viability, T/C [10]: 58%
- viability, T/C [11]: 23%
- viability, T/C [12]: 8.76%
- viability, T/C [13]: 83.4%
- viability, T/C [14]: 74%
- viability, T/C [15]: 76.6%
- viability, T/C [16]: 49.5%
- viability, T/C [17]: 23%
- viability, T/C [18]: 7.77%
- viability, T/C (second compound 3.16 µM, first compound 0.000949 µM): 94.8%
- viability, T/C (second compound 3.16 µM, first compound 0.003 µM): 82.7%
- viability, T/C (second compound 3.16 µM, first compound 0.00949 µM): 77.5%
- viability, T/C (second compound 3.16 µM, first compound 0.03 µM): 50.6%
- viability, T/C (second compound 3.16 µM, first compound 0.0949 µM): 19.3%
- viability, T/C (second compound 3.16 µM, first compound 0.3 µM): 7.61%
- viability, T/C (second compound 10 µM, first compound 0.000949 µM): 85.6%
- viability, T/C (second compound 10 µM, first compound 0.003 µM): 77.2%
- viability, T/C (second compound 10 µM, first compound 0.00949 µM): 68.4%
- viability, T/C (second compound 10 µM, first compound 0.03 µM): 49.9%
- viability, T/C (second compound 10 µM, first compound 0.0949 µM): 19.3%
- viability, T/C (second compound 10 µM, first compound 0.3 µM): 7.73%

- IC50 (second compound 0.01 µM): > 100 nM
- IC50 (second compound 0.0316 µM): > 100 nM
- IC50 (second compound 0.1 µM): > 100 nM
- IC50 (second compound 0.316 µM): > 100 nM
- IC50 (second compound 1 µM): > 100 nM
Structure (SMILES): NC1CCC(NC2CC2c2ccccc2)CC1 (stereo not given) + CNC(C)C(=O)NC1CN(S(=O)(=O)c2cccc(S(=O)(=O)N3CCC4CCC(C(=O)NC(c5ccccc5)c5ccccc5)N4C(=O)C(NC(=O)C(C)NC)C3)c2)CCC2CCC(C(=O)NC(c3ccccc3)c3ccccc3)N2C1=O
- viability, T/C (second compound 0.01 µM, first compound 0.000316 µM): 86.3%
- viability, T/C (second compound 0.01 µM, first compound 0.001 µM): 89.1%
- viability, T/C (second compound 0.01 µM, first compound 0.00316 µM): 87.1%
- viability, T/C (second compound 0.01 µM, first compound 0.01 µM): 75.5%
- viability, T/C [19]: 80.5%
- viability, T/C [20]: 75%
- viability, T/C (second compound 0.0316 µM, first compound 0.000316 µM): 79.2%
- viability, T/C (second compound 0.0316 µM, first compound 0.001 µM): 81.6%
- viability, T/C (second compound 0.0316 µM, first compound 0.00316 µM): 77.5%
- viability, T/C (second compound 0.0316 µM, first compound 0.01 µM): 77.3%
- viability, T/C [21]: 78.1%
- viability, T/C [22]: 70.6%
- viability, T/C (second compound 0.1 µM, first compound 0.000316 µM): 70.3%
- viability, T/C (second compound 0.1 µM, first compound 0.001 µM): 71.3%
- viability, T/C (second compound 0.1 µM, first compound 0.00316 µM): 72.2%
- viability, T/C (second compound 0.1 µM, first compound 0.01 µM): 69.6%
- viability, T/C [23]: 68.8%
- viability, T/C [24]: 68%
- viability, T/C (second compound 0.316 µM, first compound 0.000316 µM): 62.2%
- viability, T/C (second compound 0.316 µM, first compound 0.001 µM): 71.6%
- viability, T/C (second compound 0.316 µM, first compound 0.00316 µM): 65%
- viability, T/C (second compound 0.316 µM, first compound 0.01 µM): 54.5%
- viability, T/C [25]: 61.7%
- viability, T/C [26]: 57.8%
- viability, T/C (second compound 1 µM, first compound 0.000316 µM): 49.5%
- viability, T/C (second compound 1 µM, first compound 0.001 µM): 56.5%
- viability, T/C (second compound 1 µM, first compound 0.00316 µM): 54.5%
- viability, T/C (second compound 1 µM, first compound 0.01 µM): 50.9%
- viability, T/C [27]: 53.8%
- viability, T/C [28]: 53%

- IC50 (second compound 0.01 µM): > 10000 nM
- IC50 (second compound 0.0316 µM): 7580 nM
- IC50 (second compound 0.1 µM): 3970 nM
- IC50 (second compound 0.316 µM): 8980 nM
- IC50 (second compound 1 µM): 895 nM
Structure (SMILES): C#Cc1c(F)ccc2cc(O)cc(-c3ncc4c(N5CC6CCC(C5)N6)nc(OCC56CCCN5CC(F)C6)nc4c3F)c12 (stereo not given) + CNC(C)C(=O)NC1CN(S(=O)(=O)c2cccc(S(=O)(=O)N3CCC4CCC(C(=O)NC(c5ccccc5)c5ccccc5)N4C(=O)C(NC(=O)C(C)NC)C3)c2)CCC2CCC(C(=O)NC(c3ccccc3)c3ccccc3)N2C1=O
- viability, T/C [19]: 77.7%
- viability, T/C [20]: 81.8%
- viability, T/C (second compound 0.01 µM, first compound 0.316 µM): 78.5%
- viability, T/C (second compound 0.01 µM, first compound 1 µM): 73%
- viability, T/C (second compound 0.01 µM, first compound 3.16 µM): 81.7%
- viability, T/C (second compound 0.01 µM, first compound 10 µM): 63.7%
- viability, T/C [21]: 69.6%
- viability, T/C [22]: 69.4%
- viability, T/C (second compound 0.0316 µM, first compound 0.316 µM): 71.5%
- viability, T/C (second compound 0.0316 µM, first compound 1 µM): 64.8%
- viability, T/C (second compound 0.0316 µM, first compound 3.16 µM): 61.6%
- viability, T/C (second compound 0.0316 µM, first compound 10 µM): 46.4%
- viability, T/C [23]: 68%
- viability, T/C [24]: 62.4%
- viability, T/C (second compound 0.1 µM, first compound 0.316 µM): 65.9%
- viability, T/C (second compound 0.1 µM, first compound 1 µM): 54.1%
- viability, T/C (second compound 0.1 µM, first compound 3.16 µM): 55.6%
- viability, T/C (second compound 0.1 µM, first compound 10 µM): 40.5%
- viability, T/C [25]: 58.4%
- viability, T/C [26]: 58.7%
- viability, T/C (second compound 0.316 µM, first compound 0.316 µM): 55.6%
- viability, T/C (second compound 0.316 µM, first compound 1 µM): 58.4%
- viability, T/C (second compound 0.316 µM, first compound 3.16 µM): 50.6%
- viability, T/C (second compound 0.316 µM, first compound 10 µM): 48.1%
- viability, T/C [27]: 55.8%
- viability, T/C [28]: 49.5%
- viability, T/C (second compound 1 µM, first compound 0.316 µM): 56.1%
- viability, T/C (second compound 1 µM, first compound 1 µM): 47.8%
- viability, T/C (second compound 1 µM, first compound 3.16 µM): 46.7%
- viability, T/C (second compound 1 µM, first compound 10 µM): 40.9%
